Assay results published in the kinase profiling compilation of Christmann-Franck et al. (2016).

Assays:
Experiment in all cases: KINOMEscan competition binding
Details in all cases: compound 10.0 µM
NEK4 (human) = NEK4 (human) (UniProt P51957)
NEK11 (human) = NEK11 (human) (UniProt Q8NG66)
MAP3K13 (human) = MAP3K13 (human) (UniProt O43283)
MET (human) = MET (human) (UniProt P08581)
YSK4 (human) = YSK4 (human) (UniProt Q56UN5)
CDK4 CCND1 (human) = CDK4 CCND1 (human) (UniProt P11802+P24385)
CDK2 (human) = CDK2 (human) (UniProt P24941)
[1] = test system: ABL1 (human), P00519 [E255K]
[2] = test system: PIK3CA (human), P42336 [Q546K]
[3] = test system: EGFR (human), P00533 [746-750 del]
SGK3 (human) = SGK3 (human) (UniProt Q96BR1)
STK39 (human) = STK39 (human) (UniProt Q9UEW8)
STK32A (human) = STK32A (human) (UniProt Q8WU08)
ERBB3 (human) = ERBB3 (human) (UniProt P21860)
PI4KB (human) = PI4KB (human) (UniProt Q9UBF8)
[4] = test system: PIK3CA (human), P42336 [E545A]
MAP3K15 (human) = MAP3K15 (human) (UniProt Q6ZN16)
[5] = test system: EGFR (human), P00533 [P753S; 747-752 del]
CDKL5 (human) = CDKL5 (human) (UniProt O76039)
ERN1 (human) = ERN1 (human) (UniProt O75460)
CASK (human) = CASK (human) (UniProt O14936)
Chain of CASK (human) (O14936 whole entry, looked up): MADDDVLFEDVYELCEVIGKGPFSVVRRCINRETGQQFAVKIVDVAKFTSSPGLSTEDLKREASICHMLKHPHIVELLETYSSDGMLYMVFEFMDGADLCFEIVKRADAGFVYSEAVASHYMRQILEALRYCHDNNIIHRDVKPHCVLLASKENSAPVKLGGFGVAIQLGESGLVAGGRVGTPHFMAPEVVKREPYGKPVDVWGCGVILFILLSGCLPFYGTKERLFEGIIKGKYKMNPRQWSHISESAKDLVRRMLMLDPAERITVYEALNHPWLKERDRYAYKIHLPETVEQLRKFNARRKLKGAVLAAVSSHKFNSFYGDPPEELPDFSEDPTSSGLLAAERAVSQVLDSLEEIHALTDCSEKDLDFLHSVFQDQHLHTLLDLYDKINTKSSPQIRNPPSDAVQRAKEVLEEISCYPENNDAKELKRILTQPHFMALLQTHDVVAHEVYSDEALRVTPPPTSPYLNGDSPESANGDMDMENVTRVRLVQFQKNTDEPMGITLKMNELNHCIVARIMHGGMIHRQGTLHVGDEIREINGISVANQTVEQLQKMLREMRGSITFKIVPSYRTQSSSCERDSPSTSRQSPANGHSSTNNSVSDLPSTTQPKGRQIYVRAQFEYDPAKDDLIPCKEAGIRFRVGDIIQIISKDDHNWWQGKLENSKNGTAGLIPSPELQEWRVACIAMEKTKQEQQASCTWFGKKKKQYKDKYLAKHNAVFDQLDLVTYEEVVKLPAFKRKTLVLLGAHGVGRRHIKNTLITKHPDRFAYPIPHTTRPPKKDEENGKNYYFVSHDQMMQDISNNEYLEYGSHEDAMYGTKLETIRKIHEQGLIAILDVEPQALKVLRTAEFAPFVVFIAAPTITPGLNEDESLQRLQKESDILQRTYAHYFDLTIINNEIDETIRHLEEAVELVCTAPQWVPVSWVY

[6] = test system: FLT3 (human), P36888 [K663Q]
SBK1 (human) = SBK1 (human) (UniProt Q52WX2)
EGFR (human) = EGFR (human) (UniProt P00533)
HUNK (human) = HUNK (human) (UniProt P57058)
RPS6KB1 (human) = RPS6KB1 (human) (UniProt P23443)
MTOR (human) = MTOR (human) (UniProt P42345)
PIP4K2C (human) = PIP4K2C (human) (UniProt Q8TBX8)
[7] = test system: KIT (human), P10721 [V559D/T670I]
IRAK4 (human) = IRAK4 (human) (UniProt Q9NWZ3)
Chain of IRAK4 (human) (Q9NWZ3 whole entry, looked up): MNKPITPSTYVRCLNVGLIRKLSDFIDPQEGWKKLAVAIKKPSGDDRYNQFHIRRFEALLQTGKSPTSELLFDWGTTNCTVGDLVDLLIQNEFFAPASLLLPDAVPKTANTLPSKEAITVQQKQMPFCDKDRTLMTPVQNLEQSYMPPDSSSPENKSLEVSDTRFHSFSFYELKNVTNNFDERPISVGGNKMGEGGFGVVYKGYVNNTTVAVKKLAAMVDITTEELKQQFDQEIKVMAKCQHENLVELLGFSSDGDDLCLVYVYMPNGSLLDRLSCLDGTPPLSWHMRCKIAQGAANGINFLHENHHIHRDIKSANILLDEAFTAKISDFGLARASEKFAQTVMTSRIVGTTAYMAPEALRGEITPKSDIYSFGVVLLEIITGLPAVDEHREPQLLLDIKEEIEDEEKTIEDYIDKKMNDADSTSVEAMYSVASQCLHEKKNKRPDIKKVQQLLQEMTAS

MAP3K2 (human) = MAP3K2 (human) (UniProt Q9Y2U5)
Chain of MAP3K2 (human) (Q9Y2U5 whole entry, looked up): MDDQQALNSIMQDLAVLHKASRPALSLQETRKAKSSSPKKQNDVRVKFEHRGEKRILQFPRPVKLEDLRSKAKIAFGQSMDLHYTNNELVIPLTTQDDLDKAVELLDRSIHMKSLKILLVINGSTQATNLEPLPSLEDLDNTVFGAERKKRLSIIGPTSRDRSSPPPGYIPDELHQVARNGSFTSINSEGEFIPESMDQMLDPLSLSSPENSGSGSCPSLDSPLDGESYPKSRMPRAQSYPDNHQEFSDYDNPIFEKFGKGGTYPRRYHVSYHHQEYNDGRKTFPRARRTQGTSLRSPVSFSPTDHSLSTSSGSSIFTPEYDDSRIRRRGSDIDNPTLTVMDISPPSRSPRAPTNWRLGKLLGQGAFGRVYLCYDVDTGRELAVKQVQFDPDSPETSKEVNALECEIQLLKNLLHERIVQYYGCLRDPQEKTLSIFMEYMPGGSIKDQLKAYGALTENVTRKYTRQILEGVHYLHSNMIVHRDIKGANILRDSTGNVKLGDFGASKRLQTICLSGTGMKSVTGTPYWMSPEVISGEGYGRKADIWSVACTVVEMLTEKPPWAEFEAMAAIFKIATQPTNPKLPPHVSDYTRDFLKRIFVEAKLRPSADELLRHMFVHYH

TRPM6 (human) = TRPM6 (human) (UniProt Q9BX84)
ROCK1 (human) = ROCK1 (human) (UniProt Q13464)
CDK13 (human) = CDK13 (human) (UniProt Q14004)
Chain of CDK13 (human) (Q14004 whole entry, looked up): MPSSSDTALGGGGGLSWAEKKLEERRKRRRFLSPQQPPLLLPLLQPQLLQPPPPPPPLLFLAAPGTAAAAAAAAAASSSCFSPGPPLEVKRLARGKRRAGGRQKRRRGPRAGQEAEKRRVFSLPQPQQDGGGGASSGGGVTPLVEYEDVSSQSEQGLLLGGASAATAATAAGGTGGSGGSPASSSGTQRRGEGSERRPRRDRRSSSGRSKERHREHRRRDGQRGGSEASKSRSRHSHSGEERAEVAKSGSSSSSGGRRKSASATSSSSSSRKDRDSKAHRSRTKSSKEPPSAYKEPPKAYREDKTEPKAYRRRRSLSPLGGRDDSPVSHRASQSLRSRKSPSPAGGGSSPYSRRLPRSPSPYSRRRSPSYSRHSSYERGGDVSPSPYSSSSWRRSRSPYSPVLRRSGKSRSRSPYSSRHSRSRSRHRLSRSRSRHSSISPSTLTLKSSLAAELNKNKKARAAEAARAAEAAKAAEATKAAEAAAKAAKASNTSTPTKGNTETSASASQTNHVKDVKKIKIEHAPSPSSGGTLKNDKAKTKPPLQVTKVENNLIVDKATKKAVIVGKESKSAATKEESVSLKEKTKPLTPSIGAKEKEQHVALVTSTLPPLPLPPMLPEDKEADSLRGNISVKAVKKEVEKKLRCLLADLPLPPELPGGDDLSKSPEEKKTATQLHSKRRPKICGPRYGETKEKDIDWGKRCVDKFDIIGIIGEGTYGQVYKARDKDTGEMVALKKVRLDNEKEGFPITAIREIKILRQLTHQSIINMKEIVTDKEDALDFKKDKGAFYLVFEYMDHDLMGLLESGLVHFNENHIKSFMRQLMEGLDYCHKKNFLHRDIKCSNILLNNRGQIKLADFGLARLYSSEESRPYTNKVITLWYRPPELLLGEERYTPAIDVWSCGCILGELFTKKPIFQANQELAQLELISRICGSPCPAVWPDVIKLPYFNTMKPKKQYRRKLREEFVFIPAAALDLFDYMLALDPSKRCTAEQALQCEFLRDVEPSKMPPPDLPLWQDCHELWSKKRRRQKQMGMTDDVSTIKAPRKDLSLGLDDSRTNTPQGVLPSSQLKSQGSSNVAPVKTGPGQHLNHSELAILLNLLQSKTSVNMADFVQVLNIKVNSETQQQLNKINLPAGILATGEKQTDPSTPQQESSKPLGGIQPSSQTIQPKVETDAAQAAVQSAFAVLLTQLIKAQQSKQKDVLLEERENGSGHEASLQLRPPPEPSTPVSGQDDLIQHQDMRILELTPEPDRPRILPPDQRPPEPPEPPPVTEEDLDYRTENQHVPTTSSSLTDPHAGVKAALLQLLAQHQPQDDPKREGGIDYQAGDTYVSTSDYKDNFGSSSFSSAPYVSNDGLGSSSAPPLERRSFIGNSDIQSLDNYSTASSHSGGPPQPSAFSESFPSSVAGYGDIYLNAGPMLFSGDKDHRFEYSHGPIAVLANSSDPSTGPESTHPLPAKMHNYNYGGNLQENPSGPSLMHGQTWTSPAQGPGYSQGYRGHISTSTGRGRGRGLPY

CSNK1A1 (human) = CSNK1A1 (human) (UniProt P48729)
PIP5K1C (human) = PIP5K1C (human) (UniProt O60331)
Chain of PIP5K1C (human) (O60331 whole entry, looked up): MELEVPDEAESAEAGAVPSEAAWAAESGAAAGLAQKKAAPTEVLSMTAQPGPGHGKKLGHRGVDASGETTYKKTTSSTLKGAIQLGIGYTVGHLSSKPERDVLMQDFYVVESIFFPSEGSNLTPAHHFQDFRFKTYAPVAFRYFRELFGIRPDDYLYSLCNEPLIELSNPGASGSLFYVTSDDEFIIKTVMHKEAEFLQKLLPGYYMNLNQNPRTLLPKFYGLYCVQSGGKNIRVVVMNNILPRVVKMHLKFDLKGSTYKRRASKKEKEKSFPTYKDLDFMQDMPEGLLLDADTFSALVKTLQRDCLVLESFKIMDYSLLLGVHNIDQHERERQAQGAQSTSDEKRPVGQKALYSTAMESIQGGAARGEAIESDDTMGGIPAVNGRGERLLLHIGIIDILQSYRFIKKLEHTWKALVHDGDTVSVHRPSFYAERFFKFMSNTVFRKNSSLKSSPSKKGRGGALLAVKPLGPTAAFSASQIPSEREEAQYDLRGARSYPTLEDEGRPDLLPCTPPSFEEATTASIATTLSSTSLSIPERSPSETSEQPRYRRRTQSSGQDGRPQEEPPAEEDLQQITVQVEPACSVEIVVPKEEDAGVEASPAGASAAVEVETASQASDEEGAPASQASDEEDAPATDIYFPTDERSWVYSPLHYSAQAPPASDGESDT

MAK (human) = MAK (human) (UniProt P20794)
EPHB6 (human) = EPHB6 (human) (UniProt O15197)
MYLK3 (human) = MYLK3 (human) (UniProt Q32MK0)
HIPK4 (human) = HIPK4 (human) (UniProt Q8NE63)
Chain of HIPK4 (human) (Q8NE63 whole entry, looked up): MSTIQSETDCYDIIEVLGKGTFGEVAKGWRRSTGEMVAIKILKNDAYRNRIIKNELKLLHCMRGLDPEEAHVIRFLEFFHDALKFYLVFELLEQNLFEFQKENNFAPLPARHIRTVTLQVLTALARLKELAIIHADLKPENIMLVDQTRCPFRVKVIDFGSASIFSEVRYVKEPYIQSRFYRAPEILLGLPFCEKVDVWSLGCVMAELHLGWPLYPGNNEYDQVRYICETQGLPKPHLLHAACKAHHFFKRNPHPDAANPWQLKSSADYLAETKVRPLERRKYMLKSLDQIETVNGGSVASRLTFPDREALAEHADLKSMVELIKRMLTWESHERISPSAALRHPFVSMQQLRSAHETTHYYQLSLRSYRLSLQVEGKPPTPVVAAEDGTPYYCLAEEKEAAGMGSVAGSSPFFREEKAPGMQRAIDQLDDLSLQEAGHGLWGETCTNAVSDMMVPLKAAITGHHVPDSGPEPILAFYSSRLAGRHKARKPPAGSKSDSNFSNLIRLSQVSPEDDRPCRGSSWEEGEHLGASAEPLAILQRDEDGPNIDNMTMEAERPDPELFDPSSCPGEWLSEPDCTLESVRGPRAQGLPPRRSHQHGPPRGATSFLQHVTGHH

Work on `CCN1CCN(Cc2ccc(Nc3ncc4c(n3)N(C)c3ccccc3C(=O)N4C)cc2C(F)(F)F)CC1` yielded a kinase still bound, per cent of control (NEK4 (human)) of 80%, a kinase still bound, per cent of control (NEK11 (human)) of 100% and a kinase still bound, per cent of control (MAP3K13 (human)) of 53%. The kinase still bound, per cent of control (MET (human)) was 36%, the kinase still bound, per cent of control (YSK4 (human)) was 80% and the kinase still bound, per cent of control (CDK4 CCND1 (human)) was 65%. For the same compound, the kinase still bound, per cent of control (CDK2 (human)) was 68%, the kinase still bound, per cent of control [1] was 0.1% and the kinase still bound, per cent of control [2] was 3.2%. For the same compound, the kinase still bound, per cent of control [3] was 74%, the kinase still bound, per cent of control (SGK3 (human)) was 86% and the kinase still bound, per cent of control (STK39 (human)) was 100%. The kinase still bound, per cent of control (STK32A (human)) was 81%, the kinase still bound, per cent of control (ERBB3 (human)) was 75% and the kinase still bound, per cent of control (PI4KB (human)) was 100%. It also gave a kinase still bound, per cent of control [4] of 6.2%, a kinase still bound, per cent of control (MAP3K15 (human)) of 74% and a kinase still bound, per cent of control [5] of 79%. It also gave a kinase still bound, per cent of control (CDKL5 (human)) of 100%, a kinase still bound, per cent of control (ERN1 (human)) of 96% and a kinase still bound, per cent of control (CASK (human)) of 15%. The kinase still bound, per cent of control [6] was 62%, the kinase still bound, per cent of control (SBK1 (human)) was 6.9% and the kinase still bound, per cent of control (EGFR (human)) was 73%. For the same compound, the kinase still bound, per cent of control (HUNK (human)) was 59%, the kinase still bound, per cent of control (RPS6KB1 (human)) was 48% and the kinase still bound, per cent of control (MTOR (human)) was 39%. It also gave a kinase still bound, per cent of control (PIP4K2C (human)) of 3.6%, a kinase still bound, per cent of control [7] of 74% and a kinase still bound, per cent of control (IRAK4 (human)) of 100%. The kinase still bound, per cent of control (MAP3K2 (human)) was 0.55%, the kinase still bound, per cent of control (TRPM6 (human)) was 100% and the kinase still bound, per cent of control (ROCK1 (human)) was 94%. For the same compound, the kinase still bound, per cent of control (CDK13 (human)) was 100%, the kinase still bound, per cent of control (CSNK1A1 (human)) was 16% and the kinase still bound, per cent of control (PIP5K1C (human)) was 24%. The kinase still bound, per cent of control (MAK (human)) was 100%, the kinase still bound, per cent of control (EPHB6 (human)) was 21% and the kinase still bound, per cent of control (MYLK3 (human)) was 100%. The kinase still bound, per cent of control (HIPK4 (human)) was 100%.

`O=C1Nc2ccc(I)cc2/C1=C/c1cc(Br)c(O)c(Br)c1` was tested, and the kinase still bound, per cent of control (NEK4 (human)) was 93%, the kinase still bound, per cent of control (NEK11 (human)) was 100% and the kinase still bound, per cent of control (MAP3K13 (human)) was 100%. The kinase still bound, per cent of control (MET (human)) was 100%, the kinase still bound, per cent of control (YSK4 (human)) was 0.4% and the kinase still bound, per cent of control (CDK4 CCND1 (human)) was 65%. It also gave a kinase still bound, per cent of control (CDK2 (human)) of 97%, a kinase still bound, per cent of control [1] of 54% and a kinase still bound, per cent of control [2] of 97%. It also gave a kinase still bound, per cent of control [3] of 36%, a kinase still bound, per cent of control (SGK3 (human)) of 73% and a kinase still bound, per cent of control (STK39 (human)) of 100%. The kinase still bound, per cent of control (STK32A (human)) was 91%, the kinase still bound, per cent of control (ERBB3 (human)) was 87% and the kinase still bound, per cent of control (PI4KB (human)) was 0.5%. For the same compound, the kinase still bound, per cent of control [4] was 86%, the kinase still bound, per cent of control (MAP3K15 (human)) was 80% and the kinase still bound, per cent of control [5] was 50%. For the same compound, the kinase still bound, per cent of control (CDKL5 (human)) was 92%, the kinase still bound, per cent of control (ERN1 (human)) was 57% and the kinase still bound, per cent of control (CASK (human)) was 74%. It also gave a kinase still bound, per cent of control [6] of 11%, a kinase still bound, per cent of control (SBK1 (human)) of 85% and a kinase still bound, per cent of control (EGFR (human)) of 56%. For the same compound, the kinase still bound, per cent of control (HUNK (human)) was 2.8%, the kinase still bound, per cent of control (RPS6KB1 (human)) was 81% and the kinase still bound, per cent of control (MTOR (human)) was 95%. For the same compound, the kinase still bound, per cent of control (PIP4K2C (human)) was 100%, the kinase still bound, per cent of control [7] was 23% and the kinase still bound, per cent of control (IRAK4 (human)) was 90%. For the same compound, the kinase still bound, per cent of control (MAP3K2 (human)) was 100%, the kinase still bound, per cent of control (TRPM6 (human)) was 100% and the kinase still bound, per cent of control (ROCK1 (human)) was 80%. It also gave a kinase still bound, per cent of control (CDK13 (human)) of 100%, a kinase still bound, per cent of control (CSNK1A1 (human)) of 81% and a kinase still bound, per cent of control (PIP5K1C (human)) of 19%. The kinase still bound, per cent of control (MAK (human)) was 100%, the kinase still bound, per cent of control (EPHB6 (human)) was 24% and the kinase still bound, per cent of control (MYLK3 (human)) was 10%. For the same compound, the kinase still bound, per cent of control (HIPK4 (human)) was 21%.

Work on `C=CC(=O)Nc1cccc(Nc2nc(N[C@H]3CC[C@H](N(C)C)CC3)nc3c2ncn3C(C)C)c1` yielded a kinase still bound, per cent of control (NEK4 (human)) of 100%, a kinase still bound, per cent of control (NEK11 (human)) of 54% and a kinase still bound, per cent of control (MAP3K13 (human)) of 79%. For the same compound, the kinase still bound, per cent of control (MET (human)) was 100%, the kinase still bound, per cent of control (YSK4 (human)) was 15% and the kinase still bound, per cent of control (CDK4 CCND1 (human)) was 40%. For the same compound, the kinase still bound, per cent of control (CDK2 (human)) was 100%, the kinase still bound, per cent of control [1] was 70% and the kinase still bound, per cent of control [2] was 100%. The kinase still bound, per cent of control [3] was 88%, the kinase still bound, per cent of control (SGK3 (human)) was 85% and the kinase still bound, per cent of control (STK39 (human)) was 51%. The kinase still bound, per cent of control (STK32A (human)) was 89%, the kinase still bound, per cent of control (ERBB3 (human)) was 94% and the kinase still bound, per cent of control (PI4KB (human)) was 100%. For the same compound, the kinase still bound, per cent of control [4] was 100%, the kinase still bound, per cent of control (MAP3K15 (human)) was 66% and the kinase still bound, per cent of control [5] was 90%. The kinase still bound, per cent of control (CDKL5 (human)) was 100%, the kinase still bound, per cent of control (ERN1 (human)) was 96% and the kinase still bound, per cent of control (CASK (human)) was 92%. It also gave a kinase still bound, per cent of control [6] of 1.2%, a kinase still bound, per cent of control (SBK1 (human)) of 20% and a kinase still bound, per cent of control (EGFR (human)) of 100%. For the same compound, the kinase still bound, per cent of control (HUNK (human)) was 85%, the kinase still bound, per cent of control (RPS6KB1 (human)) was 87% and the kinase still bound, per cent of control (MTOR (human)) was 100%. It also gave a kinase still bound, per cent of control (PIP4K2C (human)) of 66%, a kinase still bound, per cent of control [7] of 86% and a kinase still bound, per cent of control (IRAK4 (human)) of 2.5%. It also gave a kinase still bound, per cent of control (MAP3K2 (human)) of 0.2%, a kinase still bound, per cent of control (TRPM6 (human)) of 66% and a kinase still bound, per cent of control (ROCK1 (human)) of 16%. For the same compound, the kinase still bound, per cent of control (CDK13 (human)) was 40%, the kinase still bound, per cent of control (CSNK1A1 (human)) was 0.65% and the kinase still bound, per cent of control (PIP5K1C (human)) was 100%. For the same compound, the kinase still bound, per cent of control (MAK (human)) was 100%, the kinase still bound, per cent of control (EPHB6 (human)) was 74% and the kinase still bound, per cent of control (MYLK3 (human)) was 100%. For the same compound, the kinase still bound, per cent of control (HIPK4 (human)) was 63%.
